Data published in ChEMBL document CHEMBL1201862, “PubChem BioAssay data set” (2004).
The source made the active and inactive calls.

Key:
Estrogen receptor beta [1] = target: T1, Estrogen receptor beta (Homo sapiens, UniProt Q92731); assay: ERβ–SRC-3 coactivator interaction inhibitors, confirmation, orthogonal assay, biochemical, ELISA, streptavidin-HRP readout (AID 1060)
Estrogen receptor beta [2] = target: T1, Estrogen receptor beta
[3] = target: Serine/threonine-protein phosphatase (Homo sapiens, UniProt Q9BPW0); assay: PP5 phosphatase inhibitors, dose response, biochemical, fluorescence (AID 2395)
[4] = target: Serine/threonine-protein phosphatase PP1-alpha catalytic subunit (Homo sapiens, UniProt P62136); assay: PP1 phosphatase inhibitors, dose response, biochemical, fluorescence (AID 2394)
[5] = target: Dual specificity protein phosphatase 6 (Rattus norvegicus, UniProt Q64346); assay: MKP-3 phosphatase inhibitors, primary screen, biochemical, rat enzyme, in vitro (AID 425)
[6] = AlphaScreen signal interference compounds, dose response, artefact control for ARNT-TACC3 interaction inhibitor project, biochemical, luminescence, cherry-pick (AID 651705); format: functional;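 further: AlphaScreen bead proximity signal that flags compounds interfering with the detection technology; potency reflects signal decrease which marks the compound as an assay artifact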
[7] = inhibitors of firefly luciferase expression or activity, dose response, H4 neuroglioma cells, luminescence (AID 1990); format: functional, cell-based
[8] = cytotoxicity in KRAS-transformed pancreatic duct cells, primary screen, cell-based, fluorescence, HTS (AID 431); format: functional; settings: Homo sapiens;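 further: cell line used: HPDE-C7K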
[9] = Luminescence Cell-Based Dose Response HTS to Identify Inhibitors of 5'UTR Stem-Loop Driven Prion Protein mRNA Translation in H4 Neuroglioblastoma Cells. [Related pubchem assays: 1827 (Project Summary), 1813 (Primary HTS)]; format: functional
[10] = target: Scavenger receptor class B member 1 (Mus musculus, UniProt Q61009); assay: inhibitors of SR-BI mediated HDL lipid uptake, dose response, ldlA[mSR-BI] cells, fluorescence, cherry pick (AID 493194); format: functional, cell-based;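 further: cellular uptake of fluorescent DiI-labeled HDL measured as cell fluorescence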
Nonstructural protein 1 = Nonstructural protein 1 (Influenza A virus, UniProt Q194T2); format: functional, Influenza A virus (A/California/07/2009(H1N1))
[11] = inhibitors of SNCA 5'UTR-driven reporter translation, confirmation, H4 neuroglioma cells, luminescence (AID 1988); format: functional, cell-based
INS1 = assay: beta cell apoptosis inhibitors, cytokine rescue, dose response, luminescence, retest (AID 449756); format: functional, cell-based; settings: Rattus norvegicus;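 further: cell death triggered by IL-1 beta plus TNF-alpha plus IFN-gamma mixture; protective hits raise ATP signal compared with cytokine alone wells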
[12] = cytotoxicity in HPDE-C7 cells, cell-based, fluorescence, HTS (AID 430); format: functional; settings: Homo sapiens
cells [13] = format: functional, cell-based
cells [14] = format: functional, cell-based; remark: listed apart in the source
[15] = enhancers of respiration in Yfh1-depleted yeast, dose response, Friedreich's ataxia, plus single-dose screen (AID 1465); format: functional;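 further: yeast depleted of Yfh1p frataxin homolog grown on glycerol needing respiration; WST-1 tetrazolium dye reduction as measure of cellular dehydrogenase metabolic activity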
[16] = target: Sphingosine 1-phosphate receptor 2 (Homo sapiens, UniProt O95136); assay: Dose Response Cell Based Assay for Agonists of the S1P2 Receptor of Purchased Analogues. [Related pubchem assays: 729, 843, 854, 736 ]; format: functional
HEK293 [17] = assay: NOD1 signaling inhibitors, primary screen, cell-based, luminescence, uHTS (AID 1578); format: functional; settings: Homo sapiens
HEK293 [18] = assay: NOD2 signaling inhibitors in MDP-stimulated cells, cell-based, uHTS, luminescence (AID 2001); format: functional; settings: Homo sapiens
[19] = inhibitors of intracellular T. cruzi replication, confirmation, NIH3T3 host cells, beta-gal luminescence (AID 2044); format: functional, cell-based;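 further: intracellular parasites grown in NIH/3T3 mouse fibroblasts as host cells; luminescent beta-galactosidase reporter signal from transgenic T. cruzi replicating inside host cells; inhibitors lower the luminescence signal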
[20] = cytotoxicity toward NIH3T3 fibroblasts, dose response, counter-screen, cell-based, ATP luminescence, mouse fibroblasts (AID 2010); format: functional;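 further: cells exposed to compound for about 90 hours before reading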
[21] = target: T2, Neuropeptide Y receptor type 2 (Homo sapiens, UniProt P49146); assay: NPY-Y2 antagonist potency, selectivity check, dose response, counter-screen for NPY-Y1 antagonist project, cell-based (AID 1278); format: functional
[22] = target: T3, Microphthalmia-associated transcription factor (Homo sapiens, UniProt O75030); assay: TRPM1 promoter luciferase signal decrease, dose response, MITF inhibitor project, cell-based, SK-MEL-5, cherry-picked, set 3 (AID 493073); format: functional
T3 sequence (O75030 whole entry): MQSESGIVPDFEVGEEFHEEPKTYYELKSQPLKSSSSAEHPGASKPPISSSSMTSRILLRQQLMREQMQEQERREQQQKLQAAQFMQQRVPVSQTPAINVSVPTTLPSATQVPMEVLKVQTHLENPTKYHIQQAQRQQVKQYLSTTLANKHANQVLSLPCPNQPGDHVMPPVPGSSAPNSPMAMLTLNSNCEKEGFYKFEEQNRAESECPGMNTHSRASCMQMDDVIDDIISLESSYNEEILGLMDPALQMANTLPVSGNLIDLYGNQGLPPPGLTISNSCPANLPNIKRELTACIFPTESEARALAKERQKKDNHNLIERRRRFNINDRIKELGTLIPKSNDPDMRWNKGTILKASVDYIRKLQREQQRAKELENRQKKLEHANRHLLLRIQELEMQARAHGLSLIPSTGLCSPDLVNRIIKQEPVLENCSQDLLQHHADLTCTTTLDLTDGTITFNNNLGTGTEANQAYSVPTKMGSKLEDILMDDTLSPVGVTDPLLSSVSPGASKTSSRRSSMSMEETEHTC

[23] = target: T4, Neuropeptide Y receptor type 1 (Homo sapiens, UniProt P25929); assay: NPY-Y1 receptor antagonist potency, dose response, cell-based (AID 1277); format: functional
HEK293 [24] = assay: cells; format: functional, cell-based; settings: Homo sapiens
HEK293 [25] = assay: cells; format: functional, cell-based; settings: Homo sapiens; remark: listed apart in the source
[26] = target: T4, Neuropeptide Y receptor type 1; format: functional
[27] = target: T2, Neuropeptide Y receptor type 2; format: functional, cell-based

T2 sequence (P49146 whole entry): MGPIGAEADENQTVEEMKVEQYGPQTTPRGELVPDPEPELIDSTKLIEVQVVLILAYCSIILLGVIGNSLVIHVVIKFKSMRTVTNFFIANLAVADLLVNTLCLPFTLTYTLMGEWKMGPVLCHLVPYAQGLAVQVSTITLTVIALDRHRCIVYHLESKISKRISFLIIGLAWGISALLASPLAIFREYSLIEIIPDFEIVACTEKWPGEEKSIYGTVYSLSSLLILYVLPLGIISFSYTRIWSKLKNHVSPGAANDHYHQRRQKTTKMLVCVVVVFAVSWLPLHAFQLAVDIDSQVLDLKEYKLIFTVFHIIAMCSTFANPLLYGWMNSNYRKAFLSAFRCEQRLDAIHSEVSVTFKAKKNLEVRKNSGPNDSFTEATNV
T4 sequence (P25929 whole entry): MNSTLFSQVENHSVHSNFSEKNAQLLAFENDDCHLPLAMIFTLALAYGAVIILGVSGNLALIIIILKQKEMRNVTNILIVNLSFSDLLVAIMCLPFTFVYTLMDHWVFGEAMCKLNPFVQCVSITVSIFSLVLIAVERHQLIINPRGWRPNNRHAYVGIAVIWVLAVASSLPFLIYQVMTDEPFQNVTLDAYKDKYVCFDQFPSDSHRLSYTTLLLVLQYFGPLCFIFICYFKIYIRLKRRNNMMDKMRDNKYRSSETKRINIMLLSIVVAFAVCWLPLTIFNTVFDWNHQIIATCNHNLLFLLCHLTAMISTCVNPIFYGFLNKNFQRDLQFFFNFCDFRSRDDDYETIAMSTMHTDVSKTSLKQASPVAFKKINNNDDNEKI
T1 sequence (Q92731 whole entry): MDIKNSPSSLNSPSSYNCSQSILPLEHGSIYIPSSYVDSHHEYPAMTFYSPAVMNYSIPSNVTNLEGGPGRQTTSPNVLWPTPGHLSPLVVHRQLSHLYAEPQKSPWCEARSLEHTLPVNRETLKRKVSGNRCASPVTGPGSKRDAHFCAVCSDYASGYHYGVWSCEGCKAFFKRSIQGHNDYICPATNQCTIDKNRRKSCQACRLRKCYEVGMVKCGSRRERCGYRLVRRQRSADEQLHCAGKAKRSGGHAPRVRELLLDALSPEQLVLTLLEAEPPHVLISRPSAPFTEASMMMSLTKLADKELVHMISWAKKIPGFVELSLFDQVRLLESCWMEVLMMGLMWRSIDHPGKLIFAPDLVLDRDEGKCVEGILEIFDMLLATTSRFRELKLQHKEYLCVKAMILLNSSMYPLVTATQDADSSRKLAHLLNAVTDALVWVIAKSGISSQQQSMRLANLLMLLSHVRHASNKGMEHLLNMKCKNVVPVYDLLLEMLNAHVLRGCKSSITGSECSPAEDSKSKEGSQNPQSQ
Chain of Nonstructural protein 1 (Q194T2 whole entry): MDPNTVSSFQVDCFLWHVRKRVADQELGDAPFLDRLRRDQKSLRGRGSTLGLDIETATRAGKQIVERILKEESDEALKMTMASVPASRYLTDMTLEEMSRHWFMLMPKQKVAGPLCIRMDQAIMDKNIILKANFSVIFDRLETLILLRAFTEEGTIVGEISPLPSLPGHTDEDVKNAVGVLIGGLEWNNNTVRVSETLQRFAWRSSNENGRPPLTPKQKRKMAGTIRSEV
Chain of Sphingosine 1-phosphate receptor 2 (O95136 whole entry): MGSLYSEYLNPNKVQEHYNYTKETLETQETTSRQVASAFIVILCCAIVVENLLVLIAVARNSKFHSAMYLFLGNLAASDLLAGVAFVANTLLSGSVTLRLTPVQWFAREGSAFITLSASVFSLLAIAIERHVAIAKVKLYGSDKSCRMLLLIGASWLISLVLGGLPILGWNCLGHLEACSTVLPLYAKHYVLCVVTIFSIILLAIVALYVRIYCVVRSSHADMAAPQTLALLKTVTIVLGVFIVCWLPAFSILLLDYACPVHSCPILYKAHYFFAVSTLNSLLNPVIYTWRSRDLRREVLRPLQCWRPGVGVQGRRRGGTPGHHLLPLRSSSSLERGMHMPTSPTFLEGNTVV
Chain of Scavenger receptor class B member 1 (Q61009 whole entry): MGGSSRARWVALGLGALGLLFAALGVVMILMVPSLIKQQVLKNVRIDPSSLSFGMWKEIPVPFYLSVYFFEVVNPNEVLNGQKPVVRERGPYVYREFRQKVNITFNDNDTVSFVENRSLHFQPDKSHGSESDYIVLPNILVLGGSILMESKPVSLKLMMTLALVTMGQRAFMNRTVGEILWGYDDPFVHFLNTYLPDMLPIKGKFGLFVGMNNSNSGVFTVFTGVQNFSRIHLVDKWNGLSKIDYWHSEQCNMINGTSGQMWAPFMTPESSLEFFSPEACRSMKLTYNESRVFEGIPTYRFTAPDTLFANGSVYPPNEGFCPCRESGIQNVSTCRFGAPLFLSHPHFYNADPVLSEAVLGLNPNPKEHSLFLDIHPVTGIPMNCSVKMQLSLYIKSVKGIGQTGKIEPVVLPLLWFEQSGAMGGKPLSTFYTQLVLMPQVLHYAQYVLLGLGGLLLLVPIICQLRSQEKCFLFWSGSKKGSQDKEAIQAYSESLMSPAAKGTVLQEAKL
Chain of Dual specificity protein phosphatase 6 (Q64346 whole entry): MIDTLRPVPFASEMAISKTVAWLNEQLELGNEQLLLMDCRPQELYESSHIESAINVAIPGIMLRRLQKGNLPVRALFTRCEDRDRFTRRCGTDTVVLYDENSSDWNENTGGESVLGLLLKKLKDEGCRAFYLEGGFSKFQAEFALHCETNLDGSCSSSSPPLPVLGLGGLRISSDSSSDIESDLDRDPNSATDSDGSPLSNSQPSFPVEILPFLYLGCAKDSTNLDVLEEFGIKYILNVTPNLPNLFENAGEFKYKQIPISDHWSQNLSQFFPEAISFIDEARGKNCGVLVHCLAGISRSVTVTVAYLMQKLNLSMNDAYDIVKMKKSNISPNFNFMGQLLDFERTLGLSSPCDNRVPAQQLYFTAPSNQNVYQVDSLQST
Chain of Serine/threonine-protein phosphatase (Q9BPW0 whole entry): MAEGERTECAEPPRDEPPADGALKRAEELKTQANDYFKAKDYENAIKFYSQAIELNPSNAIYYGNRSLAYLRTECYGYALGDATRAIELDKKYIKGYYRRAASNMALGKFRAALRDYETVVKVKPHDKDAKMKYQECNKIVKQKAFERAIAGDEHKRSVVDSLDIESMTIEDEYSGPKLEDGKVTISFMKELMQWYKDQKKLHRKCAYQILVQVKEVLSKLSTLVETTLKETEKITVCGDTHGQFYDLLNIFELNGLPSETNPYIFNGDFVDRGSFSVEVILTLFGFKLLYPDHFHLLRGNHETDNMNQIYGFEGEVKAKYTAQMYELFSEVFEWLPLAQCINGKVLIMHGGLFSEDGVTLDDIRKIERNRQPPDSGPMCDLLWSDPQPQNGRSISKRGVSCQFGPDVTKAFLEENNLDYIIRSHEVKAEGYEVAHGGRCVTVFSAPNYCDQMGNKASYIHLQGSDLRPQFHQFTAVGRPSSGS
Chain of Serine/threonine-protein phosphatase PP1-alpha catalytic subunit (P62136 whole entry): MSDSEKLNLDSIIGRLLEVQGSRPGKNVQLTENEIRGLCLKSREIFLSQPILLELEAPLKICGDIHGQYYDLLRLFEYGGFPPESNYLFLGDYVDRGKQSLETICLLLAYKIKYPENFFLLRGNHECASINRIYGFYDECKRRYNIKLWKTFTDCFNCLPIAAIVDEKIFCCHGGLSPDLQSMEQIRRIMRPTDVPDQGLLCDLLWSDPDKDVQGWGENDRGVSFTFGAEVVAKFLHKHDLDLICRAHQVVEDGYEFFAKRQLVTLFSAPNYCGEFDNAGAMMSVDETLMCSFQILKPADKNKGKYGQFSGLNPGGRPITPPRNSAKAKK

CN1C(=O)CC(C(=O)O)S/C1=N/c1cc(Cl)c(O)c(Cl)c1 (centres undefined)
IC50 (Estrogen receptor beta [1]): > 109 µM (not active)
IC50 (Estrogen receptor beta [2]): 26.9 µM (active)

COC(=O)CCC(=O)OC1(C)C(=O)C=C2C=C(C3CC3)N(CC3CC3)C=C2C1=O (centres undefined)
IC50 [3]: 17 µM (not active)
IC50 [4]: 63.6 µM (not active)

CCOC(=O)c1cc2sccc2n1Cc1ccccc1
IC50 [5]: > 100 µM (not active)

O=C(Nc1nc(NC(=O)c2ccco2)n(-c2ccccc2)n1)c1ccccc1
AC50 [6]: 127 µM (active)
EC50 [7]: 10 µM (active)
EC50 [8]: 6.1 µM (active)
EC50 [9]: 5.2 µM (active)
AC50 [10]: 13.4 µM (active)
IC50 (Nonstructural protein 1): 85.9 µM (active)
EC50 [11]: 7.85 µM (active)
AC50 (INS1): 2.96 µM (active)
EC50 [12]: 3.73 µM (active)
EC50 (cells [13]): > 350 µM (not active)
EC50 (cells [14]): > 350 µM (not active)
EC50 [15]: > 100 µM (active)

Cc1cc(C(=O)COC(=O)CCS(=O)(=O)c2ccccc2)c(C)n1Cc1ccccc1
EC50 [16]: > 30 µM (not active)

CC1CC(C)CN(C2=CC(=[N+]3CCCC3)CC(C)(C)C2)C1 (centres undefined)
EC50 (HEK293 [17]): 2.22 µM (active)
IC50 (HEK293 [18]): 12.3 µM (inactive)
EC50 [19]: 0.159 µM (active)
EC50 [20]: > 60 µM (not active)
IC50 [21]: > 35 µM (not active)
AC50 [22]: 2.24 µM (active)
IC50 [23]: 15.1 µM (not active)
IC50 (HEK293 [24]): > 20 µM (inactive)
IC50 (HEK293 [25]): 7.24 µM (active)

CCOc1ccc(Oc2c(/C=N/NC(C)=O)c(C)nn2-c2ccccc2)cc1
IC50 [26]: 8.9 µM (active)
IC50 [27]: 4.53 µM (active)
